Results as given in publication PMC10883292, “Estrogen Receptor Mutations as Novel Targets for Immunotherapy in Metastatic Estrogen Receptor–positive Breast Cancer” (Cancer Research Communications, 2024).

Legend:
[1] = test system: peptide-specific CD8+ T cells from PBMC of healthy female HLA-A2 positive donors; experiment: Peptide-specific CTL tetramer assay and expansion; assay type: cell-based, human; details: for tetramer expansion: post- vs pre-expansion, in words; for average frequency fold change (vs. pre-expansion): after CTL expansion with peptide-pulsed DCs, IL7, IL2; for average frequency fold change (vs. pre-expansion) / average frequency of peptide-specific CTLs in peripheral blood: tetramer staining; for average frequency of peptide-specific CTLs in peripheral blood: pre-expansion, PBMC of healthy females, 3 donors
Text: Healthy donor peripheral blood samples were purchased from the local blood bank and used under an MD Anderson Cancer Center Institutional Review Board–approved protocol. Because the samples came from deidentified healthy donors, the Institutional Review Board determined that informed consent was not required. Peripheral blood mononuclear cells (PBMC) were isolated from buffy coats of healthy female HLA-A2 positive donors by Ficoll/Histopaque (Sigma-Aldrich) density gradient centrifugation and split equally into two groups. One group of PBMC was used to assess the pre-expansion frequency of the peptide-specific CTLs. These cells were immediately stained with FITC-conjugated anti-CD3 and APC-H7–conjugated anti-CD8 to select for CD8^+ T cells. Pacific blue (PB)-conjugated anti-CD4, anti-CD14, anti-CD16, anti-CD19, and anti-CD56 (BD Biosciences) were used as a dump gate to gate out other immune cell types; PE-conjugated mutant peptide and APC-conjugated wild-type peptide tetramers (Baylor College of Medicine, MHC tetramer core, Houston, TX) were used to enumerate the percentage of peptide-specific CD8^+ T cells present in healthy PBMCs. The analysis was performed using flow cytometry.
The second group of donor PBMC was used to assess the expansion potential of the peptide-specific CTLs. To expand peptide-specific CTLs, dendritic cells (DC) were matured from adherent monocytes by the addition of GMCSF (100 ng/mL, Sanoti), IL4 (50 ng/mL, rhIL4, Tonbo Biosciences), and TNFα (25 ng/mL, BioLegend). Lymphocytes from the same donor were separated and cocultured with 40 µg/mL of mutant and wild-type peptides. After 5 days, DCs were harvested and cocultured with autologous CD8^+ T cells for an additional 7 days. The cocultured cells were supplemented with IL7 (10 ng/mL; BioLegend) for CTL activation and IL2 (25 ng/mL; R&D Systems) for CTL expansion. After CTL activation and expansion, cells were stained and analyzed as described above.
FIGURE 3 Peptide-specific expansion of CD8^+ T cells. PBMCs from healthy donors were isolated and expanded as described in the Materials and Methods. Tetramer staining was performed pre- and post-expansion to quantify frequencies of peptide-specific CD8^+ T cells. A, Wildtype-1, E380Q. B, Wildtype-2, Y537S, D538G. Data represents three independent experiments, from 3 separate donors, performed in triplicate. Statistical significance was determined via comparison of pre-expansion versus post-expansion CD8^+tetramer^+ population using unpaired Student t test. *, P < 0.05.

peptide-pulsed T2 cells = experiment: Calcein-AM release cytotoxicity assay, peptide-pulsed T2 cells; assay type: cell-based, human; details: 20:1 effector:target ratio, 4-hour calcein-AM release, T2 cells pulsed with corresponding peptide, peptide-specific CTLs from healthy female donors
Protocol: Healthy donor lymphocytes and DCs were cocultured in 6-well plates supplemented with IL7 and IL2, as described above. On days 12–14, cultured peptide-specific CTLs were harvested and peptide-specific cytotoxicity was assessed using a standard 4-hour Calcein-AM (Sigma-Aldrich) release assay as described previously ([24]). Briefly, target cells, including T2 cells pulsed with mutant and wild-type peptides, were labeled with 5 µg/mL calcein-AM for 15 minutes in the dark. After two washes, cells were adjusted to 2 × 10^5/mL, plated on a Terasaki plate, and cocultured with peptide-specific CTLs at effector:target ratios of 20:1 and 5:1. After 4 hours of incubation, Trypan blue was added to quench the reaction. The fluorescence was measured using a Cytation 3 Imaging Reader (BioTek). The percentage of specific cell lysis was calculated using the following formula: […]
T2 cells were pulsed with corresponding peptides and labeled with calcein-AM. Cytotoxicity was determined by a standard calcein-AM release assay. Wildtype-1 (A), E380Q (B), Wildtype-2 (C), Y537S (D), D538G (E). Non-pulsed T2 cells were used as negative controls. Statistical significance was determined via unpaired Student t test. Data represent the average of three to four experiments from separate healthy female donors run in triplicate. *, P < 0.05; ***, P < 0.001.

HLA-A*0201 on T2 cells = target: T1, HLA-A*0201 on T2 cells (Homo sapiens, UniProt P04439, D140Y/D185E/D98H/E176V/E277Q/G131W/G231S/I119V/I121R/I166T/I218V/L300P/L318F/N151K/N90K/P208A/P217A/Q86G/Q94H/R138H/R169H/T345S); experiment: T2 dissociation (stability) assay; assay type: cell-based; details: peptide:HLA-A*0201 dissociation; T2 cells pulsed 8–12 hours, washed; MFI normalized to time 0; linear regression; three independent experiments in triplicate
T1 construct: T2 cells were pulsed with indicated peptides for 8–12 hours, washed, and then stained for surface HLA-A*0201 expression; host or cells: T2 cells
Protocol: T2 binding assays were performed as described previously ([23]). […] Surface expression of HLA-A*0201 in T2 cells was determined by staining with an anti-HLA-A2 mAb (BB7.2, BD Biosciences). The median fluorescence intensity (MFI) was measured using a FACSCando II (BD Biosciences). The peptide half-life was calculated by linear regression using GraphPad Prism software.
FIGURE 2 Kinetics of peptide: HLA-A*0201 dissociation. T2 cells were pulsed with indicated peptides for 8–12 hours, washed, and then stained for surface HLA-A*0201 expression at indicated timepoints for wildtype-1 and E380Q (A), wildtype-2 and Y537S (B), wildtype-2 and D538G (C). MFI for each timepoint was normalized to initial staining (time = 0). Linear regression analysis was used to plot lines of best fit for each individual peptide, and half-life for each peptide is shown in Table 2. Data are pooled from three independent experiments performed in triplicate.

Sequence | tetramer expansion [1] | specific cytotoxicity (peptide-pulsed T2 cells) | Half-Life (HLA-A*0201 on T2 cells) | average frequency fold change (vs. pre-expansion) [1] | average frequency of peptide-specific CTLs in peripheral blood [1]
LLECAWLEI [Wildtype-1, wild-type ESR1-derived nonameric peptide associated with E380Q] | did not show tetramer expansion | 25.99% | 5.4 h |  | 
PLYGLLLEM [D538G, ESR1-derived nonameric peptide with D538G mutation] |  | 30.48% | 6.0 h | 4.31 fold | 0.17%
PLSDLLLEM [Y537S, ESR1-derived nonameric peptide with Y537S mutation] |  | 30.03% | 6.2 h | 4.85 fold | 0.18%
LLQCAWLEI [E380Q, ESR1-derived nonameric peptide with E380Q mutation] |  | 28.45% | 7.2 h | 5.77 fold | 0.03%
PLYDLLLEM [Wildtype-2, wild-type ESR1-derived nonameric peptide associated with Y537S and D538G] | modest expansion | 13.27% | 5.9 h |  | 
